Laboratory results taken from patent US12233032B2, “Compositions for management of polycystic ovary syndrome” (Sami-Sabinsa Group Limited, priority 2021, dated 2025).
Marks after values point to notes of the source that are not given here.

Assays:
Format in all cases: in vivo
[1] = system: PCOS induced by letrozole in female Wistar rats; assay: Ovarian weight in letrozole-induced PCOS; conditions: day 22 to day 36
Method: (§1) Animals and Experimental design: Animals were housed under standard air-conditioned laboratory conditions. The temperature was maintained at maximum: 24° C. and a minimum of 23° C. and Relative humidity at maximum: 63% and a minimum of 48% with 12 h light and 12 h dark cycle. The maximum and minimum temperature and relative humidity in the experimental room were recorded once daily. Female virgin Wistar rats (150-200 g) was checked daily for 4-day ovarian cycle using vaginal cytology. PCOS was induced by oral administration of aromatase inhibitor, letrozole (1 mg/kg) dissolved in 0.5% CMC (2 mg/kg) for 21 days. During the experiment, the estrous cycle was monitored by the analyses of relative proportion of leukocytes, epithelial and cornified cells in vaginal smears. Following letrozole administration, test samples were administered to animals from day 22 to day 36. After treatment protocol, animal from all groups (Table 1) were fasted overnight and anesthetized with diethylether/halothane. The blood was collected by retino-orbital puncture, then serum was separated by centrifugation followed by estimation of hormones and other biochemical parameters using commercially available ELISA kits. The serum hormone levels, body weight and ovary weigh of the animals were assessed to ascertain the effective dose.

[2] = system: PCOS induced by letrozole in female Wistar rats; assay: Serum hormonal levels (17-β estradiol, progesterone, FSH, LH) in letrozole-induced PCOS; conditions: day 22 to day 36
Method: as §1

[3] = system: PCOS induced by letrozole in female Wistar rats; assay: Thyroid function analysis (serum T3, T4, TSH) in PCOS
Method: Animals and Experimental design: Animals were housed under standard air-conditioned laboratory conditions. The temperature was maintained at maximum: 24° C. and a minimum of 23° C. and Relative humidity at maximum: 63% and a minimum of 48% with 12 h light and 12 h dark cycle. The maximum and minimum temperature and relative humidity in the experimental room were recorded once daily. Female virgin Wistar rats (150-200 g) was checked daily for 4-day ovarian cycle using vaginal cytology. PCOS was induced by oral administration of aromatase inhibitor, letrozole (1 mg/kg) dissolved in 0.5% CMC (2 mg/kg) for 21 days. During the experiment, the estrous cycle was monitored by the analyses of relative proportion of leukocytes, epithelial and cornified cells in vaginal smears.
Following letrozole administration, test samples were administered to animals from day 22 to day 36. After treatment protocol, animal from all groups (Table 1) were fasted overnight and anesthetized with diethylether/halothane. The blood was collected by retino-orbital puncture, then serum was separated by centrifugation followed by estimation of hormones and other biochemical parameters using commercially available ELISA kits.
Based on the above results, the following groups were taken for further analysis BDMC 25 mg/kg p.o. • BDMC 50 mg/kg p.o. • AC3 100 mg/kg p.o. • AC3 200 mg/kg p.o.
The following molecular targets were assessed: • 1. Thyroid Function analysis • 2. Effect on androgen profile • 3. Effect on serum adiponectin levels • 4. Insulin resistance • 5. Effect on Serum Paraoxonase 1 Activity • 6. Effect of gut microbiota • 7. Oxidative stress and inflammatory markers Thyroid Function Analysis

[4] = system: PCOS induced by letrozole in female Wistar rats; assay: Body weight in letrozole-induced PCOS
Method: as §1

Question: Which Ovarian weight ([1]; 3.12 mg/kg) does the source give for `O=C(/C=C/c1ccc(O)cc1)CC(=O)/C=C/c1ccc(O)cc1` [BDMC, bisdemethoxycurcumin] here?
Answer: 63.88 ± 2.19 mg

Question: And the Ovarian weight ([1]; 6.25 mg/kg)?
Answer: 59.64 ± 2.32 mg

Question: What about the Ovarian weight ([1]; 12.5 mg/kg) of the same molecule?
Answer: 54.36 ± 2.80 mg

Question: What about the Ovarian weight ([1]; 25 mg/kg) of the same molecule?
Answer: 47.88 ± 2.76 mg

Question: What about the Ovarian weight ([1]; 50 mg/kg) of the same molecule?
Answer: 48.54 ± 2.42 mg

Question: And the “Serum hormonal levels 17-β estradiol” value ([2]; 3.12 mg/kg)?
Answer: 16.89 ± 3.01 pg/mL

Question: And the “Serum hormonal levels FSH” value ([2]; 3.12 mg/kg)?
Answer: 10.54 ± 1.44 mIU/mL

Question: What about the “Serum hormonal levels LH” value ([2]; 3.12 mg/kg) of the same molecule?
Answer: 26.33 ± 3.02 mIU/mL

Question: And the “Serum hormonal levels Progesterone” value ([2]; 3.12 mg/kg)?
Answer: 18.67 ± 1.03 ng/mL

Question: What about the “Serum hormonal levels 17-β estradiol” value ([2]; 6.25 mg/kg) of the same molecule?
Answer: 18.22 ± 2.44 pg/mL

Question: What about the “Serum hormonal levels FSH” value ([2]; 6.25 mg/kg) of the same molecule?
Answer: 10.98 ± 1.52 mIU/mL

Question: What about the “Serum hormonal levels LH” value ([2]; 6.25 mg/kg) of the same molecule?
Answer: 27.32 ± 2.30 mIU/mL

Question: What about the “Serum hormonal levels Progesterone” value ([2]; 6.25 mg/kg) of the same molecule?
Answer: 20.56 ± 1.09 ng/mL

Question: What about the “Serum hormonal levels 17-β estradiol” value ([2]; 12.5 mg/kg) of the same molecule?
Answer: 18.89 ± 1.65 pg/mL

Question: What about the “Serum hormonal levels FSH” value ([2]; 12.5 mg/kg) of the same molecule?
Answer: 12.58 ± 1.08 mIU/mL

Question: And the “Serum hormonal levels LH” value ([2]; 12.5 mg/kg)?
Answer: 24.36 ± 2.11 mIU/mL

Question: What about the “Serum hormonal levels Progesterone” value ([2]; 12.5 mg/kg) of the same molecule?
Answer: 23.50 ± 2.21 ng/mL

Question: What about the “Serum hormonal levels 17-β estradiol” value ([2]; 25 mg/kg) of the same molecule?
Answer: 22.50 ± 1.67 pg/mL

Question: And the “Serum hormonal levels FSH” value ([2]; 25 mg/kg)?
Answer: 13.28 ± 1.34 mIU/mL

Question: And the “Serum hormonal levels LH” value ([2]; 25 mg/kg)?
Answer: 21.54 ± 1.26 mIU/mL

Question: What about the “Serum hormonal levels Progesterone” value ([2]; 25 mg/kg) of the same molecule?
Answer: 26.95 ± 1.53 ng/mL

Question: And the “Serum hormonal levels 17-β estradiol” value ([2]; 50 mg/kg)?
Answer: 21.26 ± 2.32 pg/mL

Question: What about the “Serum hormonal levels FSH” value ([2]; 50 mg/kg) of the same molecule?
Answer: 13.07 ± 1.36 mIU/mL

Question: And the “Serum hormonal levels LH” value ([2]; 50 mg/kg)?
Answer: 22.78 ± 1.76 mIU/mL

Question: What about the “Serum hormonal levels Progesterone” value ([2]; 50 mg/kg) of the same molecule?
Answer: 26.28 ± 1.22 ng/mL

Question: What about the “Serum hormonal levels T3” value ([3]; 25 mg/kg p.o.) of the same molecule?
Answer: 3.3 ± 0.18 μIU/ml

Question: What about the “Serum hormonal levels T4” value ([3]; 25 mg/kg p.o.) of the same molecule?
Answer: 11.78 ± 0.39 μIU/ml

Question: And the “Serum hormonal levels TSH” value ([3]; 25 mg/kg p.o.)?
Answer: 5.28** nmol/L

Question: What about the “Serum hormonal levels T3” value ([3]; 50 mg/kg p.o.) of the same molecule?
Answer: 3.05 ± 0.17 μIU/ml

Question: What about the “Serum hormonal levels T4” value ([3]; 50 mg/kg p.o.) of the same molecule?
Answer: 10.45 ± 0.27 μIU/ml

Question: What about the “Serum hormonal levels TSH” value ([3]; 50 mg/kg p.o.) of the same molecule?
Answer: 7.12** nmol/L

Question: And the Average body weight ([4]; 3.12 mg/kg from day 22, Day 28 (PCOS + Treatment))?
Answer: 202 ± 4.15 g

Question: What about the Average body weight ([4]; 3.12 mg/kg from day 22, Day 36 (PCOS + Treatment)) of the same molecule?
Answer: 200 ± 6.36 g

Question: And the Average body weight ([4]; 3.12 mg/kg group, Day 1 (PCOS induction, before treatment))?
Answer: 158 ± 6.16 g

Question: And the Average body weight ([4]; 3.12 mg/kg group, Day 7 (PCOS induction, before treatment))?
Answer: 175 ± 5.27 g

Question: And the Average body weight ([4]; 3.12 mg/kg group, Day 14 (PCOS induction, before treatment))?
Answer: 194 ± 5.77 g

Question: And the Average body weight ([4]; 3.12 mg/kg group, Day 21 (PCOS induction, before treatment))?
Answer: 210 ± 7.58 g

Question: And the Average body weight ([4]; 6.25 mg/kg from day 22, Day 28 (PCOS + Treatment))?
Answer: 201 ± 6.88 g

Question: And the Average body weight ([4]; 6.25 mg/kg from day 22, Day 36 (PCOS + Treatment))?
Answer: 198 ± 6.45 g

Question: And the Average body weight ([4]; 6.25 mg/kg group, Day 1 (PCOS induction, before treatment))?
Answer: 157 ± 8.15 g

Question: And the Average body weight ([4]; 6.25 mg/kg group, Day 7 (PCOS induction, before treatment))?
Answer: 175.3 ± 4.5 g

Question: What about the Average body weight ([4]; 6.25 mg/kg group, Day 14 (PCOS induction, before treatment)) of the same molecule?
Answer: 195.5 ± 6.6 g

Question: And the Average body weight ([4]; 6.25 mg/kg group, Day 21 (PCOS induction, before treatment))?
Answer: 215 ± 5.78 g

Question: And the Average body weight ([4]; 12.5 mg/kg from day 22, Day 28 (PCOS + Treatment))?
Answer: 200 ± 6.57 g

Question: What about the Average body weight ([4]; 12.5 mg/kg from day 22, Day 36 (PCOS + Treatment)) of the same molecule?
Answer: 196 ± 5.26 g

Question: What about the Average body weight ([4]; 12.5 mg/kg group, Day 1 (PCOS induction, before treatment)) of the same molecule?
Answer: 158 ± 7.88 g

Question: And the Average body weight ([4]; 12.5 mg/kg group, Day 7 (PCOS induction, before treatment))?
Answer: 174 ± 2.83 g

Question: And the Average body weight ([4]; 12.5 mg/kg group, Day 14 (PCOS induction, before treatment))?
Answer: 202.5 ± 8.12^ g

Question: What about the Average body weight ([4]; 12.5 mg/kg group, Day 21 (PCOS induction, before treatment)) of the same molecule?
Answer: 212 ± 6.36 g

Question: What about the Average body weight ([4]; 25 mg/kg from day 22, Day 28 (PCOS + Treatment)) of the same molecule?
Answer: 201 ± 5.54 g

Question: And the Average body weight ([4]; 25 mg/kg from day 22, Day 36 (PCOS + Treatment))?
Answer: 191 ± 5.84 g

Question: What about the Average body weight ([4]; 25 mg/kg group, Day 1 (PCOS induction, before treatment)) of the same molecule?
Answer: 157.5 ± 8.16^ g

Question: And the Average body weight ([4]; 25 mg/kg group, Day 7 (PCOS induction, before treatment))?
Answer: 172 ± 6.46 g

Question: What about the Average body weight ([4]; 25 mg/kg group, Day 14 (PCOS induction, before treatment)) of the same molecule?
Answer: 190.5 ± 4.44^ g

Question: What about the Average body weight ([4]; 25 mg/kg group, Day 21 (PCOS induction, before treatment)) of the same molecule?
Answer: 210 ± 5.12 g

Question: What about the Average body weight ([4]; 50 mg/kg from day 22, Day 28 (PCOS + Treatment)) of the same molecule?
Answer: 199 ± 8.15 g

Question: And the Average body weight ([4]; 50 mg/kg from day 22, Day 36 (PCOS + Treatment))?
Answer: 192 ± 6.36 g

Question: And the Average body weight ([4]; 50 mg/kg group, Day 1 (PCOS induction, before treatment))?
Answer: 157 ± 6.13 g

Question: And the Average body weight ([4]; 50 mg/kg group, Day 7 (PCOS induction, before treatment))?
Answer: 168 ± 5.47 g

Question: And the Average body weight ([4]; 50 mg/kg group, Day 14 (PCOS induction, before treatment))?
Answer: 190 ± 10.42 g

Question: And the Average body weight ([4]; 50 mg/kg group, Day 21 (PCOS induction, before treatment))?
Answer: 211 ± 7.58 g
